Assay [1] deals with T1, Son of sevenless homolog 1 (Homo sapiens, UniProt Q07889).
T1 sequence (Q07889 whole entry): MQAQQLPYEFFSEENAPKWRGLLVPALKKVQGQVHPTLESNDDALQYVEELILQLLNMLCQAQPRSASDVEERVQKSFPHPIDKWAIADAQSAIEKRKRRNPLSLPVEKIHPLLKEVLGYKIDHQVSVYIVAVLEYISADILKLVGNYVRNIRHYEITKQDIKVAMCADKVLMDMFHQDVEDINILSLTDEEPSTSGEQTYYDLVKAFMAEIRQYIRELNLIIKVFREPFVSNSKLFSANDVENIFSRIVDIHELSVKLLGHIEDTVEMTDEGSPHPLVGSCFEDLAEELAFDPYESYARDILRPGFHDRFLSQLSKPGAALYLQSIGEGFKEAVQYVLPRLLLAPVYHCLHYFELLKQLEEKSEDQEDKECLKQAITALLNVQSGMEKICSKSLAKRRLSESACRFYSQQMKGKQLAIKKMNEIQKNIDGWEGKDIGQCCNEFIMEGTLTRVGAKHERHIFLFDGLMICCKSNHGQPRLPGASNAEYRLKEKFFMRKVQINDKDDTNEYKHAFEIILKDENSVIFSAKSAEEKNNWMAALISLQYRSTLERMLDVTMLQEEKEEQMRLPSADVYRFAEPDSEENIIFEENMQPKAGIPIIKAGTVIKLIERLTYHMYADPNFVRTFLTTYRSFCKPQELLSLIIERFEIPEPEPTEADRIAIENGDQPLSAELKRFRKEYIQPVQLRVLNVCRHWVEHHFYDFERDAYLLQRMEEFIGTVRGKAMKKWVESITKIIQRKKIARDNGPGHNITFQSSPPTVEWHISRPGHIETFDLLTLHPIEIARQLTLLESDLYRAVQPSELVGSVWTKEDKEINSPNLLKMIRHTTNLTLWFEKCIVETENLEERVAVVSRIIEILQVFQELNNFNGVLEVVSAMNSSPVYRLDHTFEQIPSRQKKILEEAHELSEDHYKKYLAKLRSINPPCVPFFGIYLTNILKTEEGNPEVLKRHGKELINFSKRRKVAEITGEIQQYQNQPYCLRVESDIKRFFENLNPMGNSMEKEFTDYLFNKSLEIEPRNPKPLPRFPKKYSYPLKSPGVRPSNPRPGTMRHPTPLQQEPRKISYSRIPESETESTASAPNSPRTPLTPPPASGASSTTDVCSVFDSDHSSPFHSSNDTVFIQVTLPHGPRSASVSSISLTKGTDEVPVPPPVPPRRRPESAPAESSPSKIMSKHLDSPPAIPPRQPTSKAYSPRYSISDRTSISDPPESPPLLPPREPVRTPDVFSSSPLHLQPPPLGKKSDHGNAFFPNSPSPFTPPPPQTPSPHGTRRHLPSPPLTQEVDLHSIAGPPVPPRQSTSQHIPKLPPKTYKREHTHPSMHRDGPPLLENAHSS
Nature of the assay: Activation of human recombinant N-terminal His6-tagged SOS1 (564 to 1049 residues) expressed in BL21-RIL Escherichia coli assessed as SOS1-RAS complex formation by measuring exchange of GTP to BODIPY-GDP measured every 3 secs for 30 mins by nucleotide exchange assay.

Assay [2] addresses T2, Son of sevenless homolog 1 (Homo sapiens) (UniProt Q07889).
T2 sequence (whole entry): T1 sequence (Q07889 whole entry)
In words: Activation of human recombinant N-terminal His6-tagged SOS1 (564 to 1049 residues) expressed in BL21-RIL Escherichia coli assessed as SOS1-RAS complex formation by measuring exchange of GTP to BODIPY-GDP measured every 3 secs for 30 mins by nucleotide exchange assay relative to control. On the set-up: concentration or dose not given beside the values.

Assay [3] deals with T1, Son of sevenless homolog 1. Nature of the assay: Binding affinity to human recombinant N-terminal His6-tagged SOS1 (564 to 1049 residues) expressed in BL21-RIL Escherichia coli by fluorescent probe S2 based fluorescence polarization anisotrophy saturation binding assay.
Assay [4] has as its target T2, Son of sevenless homolog 1 (Homo sapiens). Nature of the assay: Biphasic activity at of SOS1 in human HeLa cells expressing wild type KRAS assessed as induction of ERK1/2 T202/Y204 phosphorylation at 1.5 to 100 uM (lower range) incubated for 30 mins by In-cell Western assay. In kind it is cell-based.
The target is the same in assay [5]. Nature of the assay: Activation of SOS1 in human NCI-H727 cells expressing KRAS G12V mutant assessed as induction of ERK1/2 T202/Y204 phosphorylation at 1.5 to 100 uM (higher range) incubated for 30 mins by In-cell Western assay. The format is cell-based.
Assay [6] shares this target. Nature of the assay: Biphasic activity at of SOS1 in human HeLa cells expressing wild type KRAS assessed as reduction in ERK1/2 T202/Y204 phosphorylation at 1.5 to 100 uM (higher range) incubated for 30 mins by In-cell Western assay. The format is cell-based.
Assay [7] has as its target Son of sevenless homolog 1 (Homo sapiens, UniProt Q07889). Nature of the assay: Activation of SOS1 in human NCI-H727 cells expressing KRAS G12V mutant assessed as induction of ERK1/2 T202/Y204 phosphorylation incubated for 30 mins by In-cell Western assay. The format is cell-based.
Assay [8] deals with T1, Son of sevenless homolog 1. In words: Activation of SOS1 in human HeLa cells expressing wild type KRAS assessed as induction of ERK1/2 T202/Y204 phosphorylation incubated for 30 mins by In-cell Western assay. In kind it is cell-based.
Assay [9] deals with T2, Son of sevenless homolog 1 (Homo sapiens). In words: Activation of SOS1 in human NCI-H727 cells expressing KRAS G12V mutant assessed as induction of ERK1/2 T202/Y204 phosphorylation at 1.5 to 100 uM (lower range) incubated for 30 mins by In-cell Western assay. In kind it is cell-based.

Activity calls are given as the source filed them. The calls are words filed in the database; no cut-off is given here. Bounds are passed on as bounds.

Usually EC50 stands for the concentration that produces a half-maximal response. The Kd is the equilibrium constant for the complex coming apart.

For the compound `Cc1cc2nc(N3CCNCC3)n(Cc3ccc(F)c(C(F)(F)F)c3)c2cc1C`, the EC50 in assay [1] is 8.1 µM. The Activity in assay [2] amounted to 263%.
For the compound `Fc1ccc(Cn2c(N3CCNCC3)nc3ccc(Br)cc32)cc1Cl`, in assay [1], the EC50 stood at 1.3 µM. For the same compound, the Activity in assay [2] came out at 115%.
The matching figures for `Cc1cc2nc(N3CCN(C)CC3)n(Cc3ccc(F)c(Cl)c3)c2cc1C`: 26 µM and 143%.
On to `Cc1cc(Cn2c(N3CCNCC3)nc3c(-c4cncnc4)cc(Cl)cc32)cc(C)c1F`, for which the Kd in assay [3] worked out at 0.35 µM.
Turning to `Fc1ccc(Cn2c(N3CCNCC3)nc3ccc(Cl)cc32)cc1Cl`, the EC50 in assay [1] amounted to 1 µM. In addition, in assay [2], the Activity worked out at 109%.
Consider `Cc1cc2nc(N3CCNCC3)n(Cc3ccc(Cl)cc3)c2cc1C`, for which, in assay [1], the EC50 was 12.4 µM. Moreover, the Activity in assay [2] came out at 164%.
Consider `Cc1ccccc1-c1cc(Cl)cc2c1nc(N1CCNCC1)n2Cc1cc(C)c(F)c(C)c1`, for which the Kd in assay [3] worked out at 0.21 µM.
In the case of `Cc1cc(Cn2c(N3CCNCC3)nc3c(N4CCOCC4)cc(Cl)cc32)cc(C)c1F`, the Kd in assay [3] turned out to be 0.13 µM.
Consider `Cc1cc2nc(N3CCNCC3)n(Cc3ccc(F)c(C)c3)c2cc1C`, for which the EC50 in assay [1] came to 4.1 µM. Also, in assay [2], the Activity was determined as 190%.
The matching figures for `Cc1cc2nc(N3CCNCC3)n(Cc3ccc(F)cc3)c2cc1C`: 5.9 µM and 130%.
Consider `Fc1ccc(CN2C3=NCCCN3c3ccccc32)cc1`, for which, in assay [1], the EC50 came to 63 µM. The Activity in [2] worked out at 40%.
As to `Cc1cc(Cn2c(N3CCNCC3)nc3c(-c4cccnn4)cc(Cl)cc32)cc(C)c1F`, the Kd in [3] came out at 0.45 µM.
As to `Fc1ccc(Cn2c(N3CCNCC3)nc3ccccc32)cc1Cl`, the outcome in assay [4] and in assay [9] was Active. Besides, the outcome in assay [5] and in assay [6] was inactive. The EC50 in assay [7] worked out at 51.4 µM; in assay [1], 5.4 µM; in assay [8], 21 µM. Besides, the Activity in [2] turned out to be 109%.
With `Cc1cc2nc(NCCN)n(Cc3ccc(F)c(Cl)c3)c2cc1C`, the EC50 in assay [1] amounted to 1.9 µM. The Activity in [2] came to 114%.
With `Cc1cc(Cn2c(N3CCNCC3)nc3c(-c4cncnc4C(C)C)cc(Cl)cc32)cc(C)c1F`, the outcome in [4], in assay [5], in [6] and in assay [9] was Active. The EC50 in [7] was found to be 13.9 µM; in assay [8], 8.8 µM. Besides, the Kd in [3] came out at 0.1 µM.
Regarding `Fc1ccc(Cn2c(N3CCNCC3)nc3ccc(C4CC4)cc32)cc1Cl`, in assay [1], the EC50 amounted to 24.3 µM. The Activity in assay [2] was 65%.
Consider `Cc1cc(Cn2c(N3CCNCC3)nc3c(N4CCC[C@@H]4CN)cc(Cl)cc32)cc(C)c1F`, for which the Kd in [3] was determined as 0.24 µM.
Turning to `Cc1cc2nc(N3CCNCC3)n(Cc3ccc(F)c(Cl)c3)c2cc1Cl`, the EC50 in assay [1] stood at 3 µM. The Activity in assay [2] came out at 200%.
The matching figures for `Cc1cc2nc(N3CCNCC3)n(Cc3ccc(F)c(F)c3)c2cc1C`: 5.9 µM and 183%.
The matching figures for `Cc1cc2nc(N3CCNCC3)n(Cc3ccc(C(F)(F)F)cc3)c2cc1C`: 19.6 µM and 148%.
As to `Cc1cc(Cn2c(N3CCNCC3)nc3c(N4CCCCC4)cc(Cl)cc32)cc(C)c1F`, the Kd in assay [3] is 0.2 µM.
For the compound `Cc1cc(Cn2c(N3CCNCC3)nc3c(N4CCC[C@H]4CN)cc(Cl)cc32)cc(C)c1F`, the outcome in assay [4], in [5], in assay [6] and in assay [9] was Active. In addition, the EC50 in [7] came out at 7.3 µM; in assay [8], 3.2 µM. Also, the Kd in [3] came out at 0.14 µM.
Regarding `Cc1cc2nc(NC3CCNCC3)n(Cc3ccc(F)c(Cl)c3)c2cc1C`, the EC50 in assay [1] amounted to 37.1 µM. For the same compound, in assay [2], the Activity was 129%.
`Cc1cc2nc(N3CCCNCC3)n(Cc3ccc(F)c(Cl)c3)c2cc1C`: the EC50 in assay [1] amounted to 8.5 µM. The Activity in assay [2] came out at 176%.
With `Cc1cc2nc(N3CCC(N)CC3)n(Cc3ccc(F)c(Cl)c3)c2cc1C`, the 50% effective concentration (EC50) in assay [1] came out at 6.6 µM. In addition, the Activity in [2] came to 114%.
The matching figures for `Cc1ccc(Cn2c(N3CCNCC3)nc3cc(C)c(C)cc32)cc1`: 36.6 µM and 93%.
The matching figures for `Cc1cc2nc(N3CCNCC3)n(Cc3cc(C)c(F)c(C)c3)c2cc1C`: 3.7 µM and 270%.
In the case of `Cc1cc(Cn2c(N3CCNCC3)nc3c(N4CCC[C@@H]4CO)cc(Cl)cc32)cc(C)c1F`, the Kd in assay [3] worked out at 0.38 µM.
Same read-out and setting: in the case of `Cc1cc(Cn2c(N3CCNCC3)nc3c(-c4c(C)cccc4C)cc(Cl)cc32)cc(C)c1F` it was 0.3 µM.
As for `Cc1cc2c(cc1C)N(Cc1ccccc1)C1=NCCCN12`, the EC50 in [1] amounted to 23.2 µM. Further, in [2], the Activity turned out to be 64%.
For the compound `Fc1ccc(Cn2c(N3CCNCC3)nc3ccc(C(F)(F)F)cc32)cc1Cl`, the EC50 in assay [1] is 4.4 µM. In assay [2], the Activity amounted to 78%.
On to `Cc1cc(Cn2c(N3CCNCC3)nc3c(-c4ccccc4CO)cc(Cl)cc32)cc(C)c1F`, for which the Kd in assay [3] came out at 0.14 µM.
Take `Cc1cc(Cn2c(N3CCNCC3)nc3c(N4CCC[C@H]4CO)cc(Cl)cc32)cc(C)c1F`: in assay [3], the Kd is 0.31 µM.
Take `Cc1cc2ncn(Cc3ccc(F)c(Cl)c3)c2cc1C`: the EC50 in assay [1] was > 100 µM.
For the compound `Cc1cc(Cn2c(N3CCNCC3)nc3c(-c4cn[nH]c4)cc(Cl)cc32)cc(C)c1F`, the Kd in assay [3] came to 0.18 µM.
As for `Cc1cc2nc(C3CCNCC3)n(Cc3ccc(F)c(Cl)c3)c2cc1C`, in [1], the EC50 amounted to 5.6 µM. In assay [2], the Activity turned out to be 128%.
The matching figures for `Cc1ccc2nc(N3CCNCC3)n(Cc3ccc(F)c(Cl)c3)c2c1`: 2.4 µM and 106%.
Take `Cc1cc(Cn2c(N3CCNCC3)nc3c(-c4cnccn4)cc(Cl)cc32)cc(C)c1F`: the Kd in assay [3] stood at 0.39 µM.
`Cc1cc(Cn2c(N3CCNCC3)nc3c(-c4ccncc4)cc(Cl)cc32)cc(C)c1F`: the Kd in assay [3] was 0.24 µM.
For `Cc1cc2nc(N3CCNCC3)n(Cc3ccccc3)c2cc1C`, the EC50 in assay [1] is 8.6 µM. Also, the Activity in assay [2] worked out at 122%.
The matching figures for `Cc1cc2nc(N3CCNCC3)n(Cc3ccc(F)c(C4CC4)c3)c2cc1C`: 11.7 µM and 151%.
Regarding `Cc1cc2nc(N3CCNCC3)n(Cc3ccc(F)c(Cl)c3)c2cc1C`, the result in assay [4], in assay [5], in assay [6] and in assay [9] was Active. Further, the EC50 in [7] is 29.1 µM; in [1], 2.2 µM; in [8], 21.3 µM. Moreover, the Activity in [2] was found to be 211%.

Values taken from ChEMBL document CHEMBL4196202, “Discovery and Structure-Based Optimization of Benzimidazole-Derived Activators of SOS1-Mediated Nucleotide Exchange on RAS” (J Med Chem, 2018).
